Laboratory results reported in PubChem BioAssay (NCI).
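At the GI50, growth is halved. Definition used: TGI = concentration required for complete inhibition of growth.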

How the values were obtained:
Experiment in all cases: DTP human tumour cell line panel, 384-well format
[1] = tested on: NCI-H226 lung
[2] = tested on: HT29 colon
[3] = tested on: ACHN renal
[4] = tested on: T-47D breast
[5] = tested on: OVCAR-4 ovarian
[6] = tested on: K-562 leukemia
[7] = tested on: SF-268 CNS
[8] = tested on: OVCAR-5 ovarian
[9] = tested on: UO-31 renal
[10] = tested on: SK-OV-3 ovarian
[11] = tested on: SNB-19 CNS
[12] = tested on: MCF7 breast
[13] = tested on: HOP-92 NSCLC

Row | SMILES | GI50 [1] [µM] | TGI [1] [µM] | GI50 [2] [nM] | TGI [2] [nM] | GI50 [3] [µM] | TGI [3] [µM] | GI50 [4] [µM] | TGI [4] [µM] | GI50 [5] [µM] | TGI [5] [µM] | GI50 [6] [µM] | TGI [6] [nM] | GI50 [7] [µM] | TGI [7] [µM] | GI50 [8] [µM] | TGI [8] [µM] | GI50 [9] [µM] | TGI [9] [µM] | GI50 [10] [µM] | TGI [10] [µM] | further results
1 | Cc1cc(-c2nc(C(=O)Nc3cc4oc(N5CCOCC5)nc4nc3N3CC[C@@H](O)C3)co2)ccn1 | 81.2 | > 100 | > 100000 | > 100000 | 19.8 | > 100 | 11.8 | 88 | 36.9 | > 100 | 34.9 | > 100000 | 54.2 | > 100 | 46 | > 100 | 33.5 | > 100 | 8.43 | 44.1 | GI50 [11]: 20.4 µM; TGI [11]: > 100 µM; GI50 [12]: 16.5 µM; TGI [12]: > 100000 nM; GI50 [13]: 27.3 µM; TGI [13]: > 100 µM
2 | C[C@@H](Oc1cc(-n2cnc3ccc(CN4CCN(C)CC4)cc32)sc1C(N)=O)c1ccccc1C(F)(F)F | 3.55 | 17.8 | 360 | 1250 | 3.29 | 13.8 | 1.83 | 5.23 | 1.81 | 10.2 | 0.307 | 1010 | 0.882 | 3.64 | 0.532 | 3.76 | 2.67 | 10.3 | 0.402 | 2.6 | GI50 [11]: 1.18 µM; TGI [11]: 15 µM; GI50 [12]: 0.384 µM; TGI [12]: 2500 nM; GI50 [13]: 1.57 µM; TGI [13]: 5.26 µM
